7 compounds from PubChem BioAssay (NCI) can be followed below.

Common to all, as to test: growth of human tumour cells (NCI), 48 h
Experiment [1] concerns BT-549 breast.
Experiment [2] concerns CCRF-CEM leukemia.
Experiment [3] concerns DU-145 prostate.
In experiment [4] the test system is HCT-116 colon.
Experiment [5] deals with LOX IMVI melanoma.
Experiment [6] relates to M14 melanoma.
Experiment [7] has as its system MDA-MB-231 breast.
Experiment [8] deals with MDA-MB-435.
Experiment [9] concerns MOLT-4 leukemia.
In experiment [10] the test system is NCI-H226 lung.
Experiment [11] concerns NCI-H522 lung.
Experiment [12] deals with OVCAR-8 ovarian.
In experiment [13] the test system is RPMI-8226 leukemia.
For experiment [14], the system named is SF-268 CNS.
Experiment [15] concerns SF-295 CNS.
Experiment [16] relates to SK-OV-3 ovarian.
For experiment [17], the system named is SNB-75 CNS.
The test system of experiment [18] is T-47D breast.

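Grown in 96-well plates, cells were treated for 48 hours with each compound at five concentrations. Insufficient inhibition: endpoint recorded as highest concentration tested. At the TGI there is no net growth.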

Turning to `N=c1oc2ccc(Cl)cc2cc1C(=O)NCc1ccccc1`, the TGI was more than 100 µM in [1]; more than 54 µM in experiment [2]; more than 100 µM in [3]; more than 100 µM in experiment [4]; more than 100 µM in [5]; more than 100 µM in experiment [6]. In addition, the TGI was more than 100 µM in [7]; more than 100 µM in [8]; more than 56.7 µM in [9]; more than 100 µM in [10]; more than 100 µM in experiment [11]; more than 100 µM in experiment [12]. The TGI in [13] is more than 100 µM; in [14] it was more than 100 µM; in experiment [15], more than 100 µM; in experiment [16], more than 100 µM; in experiment [17], more than 95 µM; in [18], more than 100 µM.

`O=C(/C=C\Nc1ccccc1O)C(Cl)(Cl)Cl`: the TGI in experiment [1], in experiment [2], in experiment [3], in experiment [4], in experiment [5] and in experiment [6] was more than 100 µM in each case. The TGI in experiment [7] is more than 100 µM; in experiment [8] it was 43.8 µM; in experiment [9] it was more than 100 µM; in experiment [10], more than 100 µM; in experiment [11] it was 65 µM; in experiment [12] it was more than 100 µM. Also, the TGI is more than 100 µM in [13]; more than 100 µM in experiment [14]; 35.2 µM in experiment [15]; more than 100 µM in experiment [16]; more than 100 µM in [17]; 96.4 µM in experiment [18].

As to `Cc1ccc(Nc2nc(=O)[nH]c(=O)[nH]2)cc1N=[N+]=[N-]`, the TGI in [1], in [2], in experiment [3], in experiment [4], in [5] and in [6] was more than 100 µM throughout. In addition, the TGI in experiment [7], in experiment [8], in experiment [9], in experiment [10], in [11] and in [12] was more than 100 µM in each case. Moreover, the TGI in [13], in experiment [14], in experiment [15], in experiment [16], in experiment [17] and in experiment [18] was more than 100 µM each time.

As to `O=c1c(O)c(-c2cc(O)c(O)cc2O)oc2cc(O)c(C3OC(CO)C(O)C(O)C3O)c(O)c12` (stereo not given), the TGI in [1], in [3], in experiment [4], in experiment [5], in [6] and in experiment [7] was more than 100 µM each time. Also, the TGI in experiment [8], in experiment [9], in experiment [10], in experiment [11], in experiment [12] and in experiment [13] was more than 100 µM each time. Besides, the TGI in [14], in experiment [15], in experiment [16], in [17] and in experiment [18] was more than 100 µM each time.

Turning to `O[C@H]1[C@H](O)[C@H](O)CN2CCC[C@@H](O)[C@H]12`, the TGI in [1], in experiment [2], in experiment [3], in [4], in [5] and in [6] was more than 100 µM each time. For the same compound, the TGI in experiment [7], in [8], in [9], in experiment [10], in experiment [11] and in experiment [12] was more than 100 µM each time. Further, the TGI in experiment [13], in [14], in [15], in [16], in experiment [17] and in experiment [18] was more than 100 µM in each case.

Turning to `CCOP(=O)(OCC)/C(C#N)=C/c1cccn1N(C)C`, the TGI in experiment [1], in [2], in experiment [3], in [4], in experiment [5] and in experiment [6] was more than 100 µM each time. The TGI in experiment [7], in [8], in experiment [9], in experiment [10], in experiment [11] and in [12] was more than 100 µM each time. For the same compound, the TGI is more than 100 µM in experiment [13]; more than 100 µM in [14]; more than 100 µM in experiment [15]; more than 100 µM in [16]; more than 100 µM in experiment [17]; 96.3 µM in experiment [18].

For the compound `O=C1CC(c2ccc[nH]2)=NN1c1ccccc1`, the TGI in experiment [1], in [2], in experiment [3], in experiment [4], in [5] and in experiment [6] was more than 100 µM each time. Further, the TGI in experiment [7] was more than 100 µM; in experiment [8], more than 100 µM; in [9] it was 85.5 µM; in experiment [10], more than 100 µM; in experiment [11], more than 100 µM; in experiment [12] it was more than 100 µM. Besides, the TGI in [13], in experiment [14], in [15], in experiment [16], in experiment [17] and in [18] was more than 100 µM throughout.
